According to paper PMC4352194, “Physicochemical and Biological Properties of Oxovanadium(IV), Cobalt(II) and Nickel(II) Complexes with Oxydiacetate Anions” (Biological Trace Element Research, 2014):
Where two headings read alike, the source gives them in different places.

How the values were obtained:
[1] = system: Human Dermal Fibroblasts adult (HDFa) cell line; assay: Cytoprotective activity against H2O2 oxidative damage (MTT); assay type: cell-based
Protocol: The Human Dermal Fibroblasts adult (HDFa) cell line (Cascade Biologics) was used in all experiments. Unless otherwise specified, cells were grown in the Dulbecco’s modified Eagle’s medium (DMEM) supplemented with 10 % fetal bovine serum (FBS) and 1× antibiotic and antimycotic solutions (all purchased from Sigma) and incubated at 310.15 K in the humidified 5 % CO2 atmosphere. Cells were plated at 2 × 10^3 cells per well of 96-well tissue culture plate. After an overnight incubation, cells were washed with DMEM without FBS and next treated with 1 mM hydrogen peroxide (H2O2) (Sigma) together with different concentrations of tested complex compounds or with 1 mM H2O2 alone to induce the oxidative damage to cells resulting in the necrotic death. Mixtures were prepared in the growth medium (DMEM) without FBS. Cells treated with the growth medium only were used as a control of normal viability. After 1-h incubation at 310.15 K, the medium was removed and cells were washed with the growth medium containing 10 % FBS to stop the H2O2 activity. Next, either the cell viability was assessed using the MTT solution (see previous paragraph) or additional incubation of cells in DMEM containing 10 % FBS for another 48 h was performed and then cells were tested for the viability (the MTT assay). The cytoprotective activity of complex compounds against the oxidative damage was calculated relatively to untreated control cells, not exposed to H2O2.

[2] = Scavenging of superoxide radicals (NBT method); conditions: complex concentration causing 50 % reduction of superoxide ion referred to that of ascorbic acid; NBT assay in DMSO
Protocol: Nitro blue tetrazolium (NBT, 98 % purity), KO2 (96 % purity) and 18-Crown-6 (99 % purity) were purchased from Sigma-Aldrich. The superoxide scavenging activity of the complexes was determined by using their ability to inhibit the reduction of nitro blue tetrazolium (NBT) by superoxide ions. UV–vis measurements were carried out by using the Perkin-Elmer Lambda 650 spectrophotometer equipped with the temperature control—Peltier system with a scan accuracy of 1 and 1-nm slit width. The measurements were carried out in DMSO solution at 288.15 K according to the method described in the literature. Superoxide free radicals were generated by dissolving 6.5-mg portion of KO2 powder into DMSO (50 mL) together with 90 mg of 18-crown-6-ether. NBT (10 mg) was dissolved directly in DMSO (10 mL). In general, 1.5 mL of DMSO/KO2/18-crown-6 mixture was added to 0.5 mL of the sample to be assayed. The mixture was kept for 20 min and then 0.1 mL of NBT solution was added while stirring. The absorbance was monitored spectrophotometrically at 560 nm. The control test was carried out under the same experimental condition under assumption that KO2 and 18-crown-6 were absent in DMSO.
The ability of the complexes to scavenge superoxide anion radicals was evaluated by the NBT assay. The measurements were carried out in the DMSO solution in which KO2 was dissolved via the use of a crown ether to generate superoxide radicals (see Material and Methods).
The antioxidant activities of the complexes towards O2 ^− were compared to each other. Based on the obtained relationships (Fig. 3), the complex concentrations causing the 50 % reduction of the concentration of the superoxide ion were calculated. The obtained values were referred to the concentration of ascorbic acid causing the same O2 ^− reduction effect measured at the same experimental conditions. In this way, ascorbic acid equivalents of the complexes were obtained. They are equal 0.35, 1.11 and 4.50 for VO(ODA), Ni(ODA) and Co(ODA), respectively.

[3] = system: Human Dermal Fibroblasts adult (HDFa) cell line; assay: Cytotoxicity assay (MTT); assay type: cell-based; conditions: for viability of the cells / cytotoxic effect / LC50 / CC50: HDFa, MTT; for viability of the cells: 500 μM; for cytotoxic effect: 1–500 μM; for CC50: read-out: LC50 (the source's name)
Protocol: The Human Dermal Fibroblasts adult (HDFa) cell line (Cascade Biologics) was used in all experiments. Unless otherwise specified, cells were grown in the Dulbecco’s modified Eagle’s medium (DMEM) supplemented with 10 % fetal bovine serum (FBS) and 1× antibiotic and antimycotic solutions (all purchased from Sigma) and incubated at 310.15 K in the humidified 5 % CO2 atmosphere.
HDFa cells were plated at 6 × 10^3 cells per well in a 96-well tissue culture plate and incubated overnight at 310.15 K to allow the attachment. The growth medium was substituted with the medium supplemented with tested complex compounds. After 24- or 48-h incubation, the cell viability was assessed using the MTT solution (3-(4,5-dimethylthiazol-2-yl)-2,5-diphenyltetrazolium bromide [Sigma]) at a concentration of 1 mg/mL prepared in the RPMI-1640 medium (Sigma). After 2-h incubation at 310.15 K, the amount of purple formazan product, dissolved in dimethylsulfoxide (DMSO) (Sigma), was quantified by measuring the absorbance at 550 nm.

[4] = 1 mM H2O2 with complex 1 h, then additional 48-h incubation in growth medium
[5] = 1 mM H2O2 with complex, 1-h exposure

| SMILES | cytoprotective activity against oxidative damage [1, 4] | cytoprotective activity against oxidative damage [1, 5] | ascorbic acid equivalents [2] | viability of the cells ([3]; 24 h) | viability of the cells ([3]; 48 h) | cytotoxic effect ([3]; 24 h) | LC50 ([3]; 24-h exposure time) | CC50 ([3]; 48-h exposure time) [µM] | CC50 ([3]; 24-h exposure time) [µM] | viability of cells ([1]; 1 mM H2O2 together with 500 μM complex, 1 h) | LC25 [3] | LC75 [3] | LC50 ([3]; 48-h exposure time) |
| --- | --- | --- | --- | --- | --- | --- | --- | --- | --- | --- | --- | --- | --- |
| O.O.O.O.O.O.O.O.O.O=C([O-])COCC(=O)[O-].O=C([O-])COCC(=O)[O-].[Ni+2].[Ni+2] [Ni(ODA), [Ni(ODA)(H2O)3]·1.5H2O] | no influence on the viability of cells | no influence on the viability of cells | 1.11 | no less than 95% | ~75% | no significant cytotoxic effects | Immeasurable | 1310 | – | – | – | – | – |
| O.O.O=C([O-])COCC(=O)[O-].[O]=[V+2] [VO(ODA), [VO(ODA)(H2O)2]] | induces the cell death | to some extent, exhibits the cytoprotective activity | 0.35 | – | – | exhibits the cytotoxic effect | – | 87.5 | 296 | – | – | – | – |
| O.O.O.O=C(O)COCC(=O)O.[Co] [Co(ODA), [Co(ODA)(H2O)2]·H2O] | grow and proliferate at similar levels to untreated control cells | highest dose- and time-dependent protective effect | 4.50 | no less than 95% | about 90% | no significant cytotoxic effects | Immeasurable | – | – | ca. 100% | Immeasurable | Immeasurable | Immeasurable |
